{"source": "patent US8785428B2", "about": "“Vermin poison” (priority 2006, dated 2014)", "key": {"[1]": {"settings": "human clinical oncology studies; cited from earlier work"}, "mouse": {"tested_on": "mouse", "settings": "cited from earlier work"}, "rat": {"tested_on": "rat", "settings": "administered intraperitoneally; cited from earlier work"}, "Walker tumour": {"tested_on": "Walker tumour", "settings": "specific rat tumour ('Walker tumour'); cited from earlier work"}, "[2]": {"settings": "dogs, packed into a gelatin capsule; cited from earlier work"}, "variety of other tumours": {"tested_on": "variety of other tumours", "settings": "cited from earlier work"}, "rats [3]": {"tested_on": "rats", "settings": "cited from earlier work"}, "rats [4]": {"tested_on": "rats", "experiment": "toxic effects in rats when administered via the oral route", "type": "in vivo", "from_the_text": "As mentioned above, rats are particularly troublesome vermin. […] For example, Tretazicar is particularly toxic towards rats compared to other rodents. […] This feature is believed to help prevent bait-shyness."}, "human cells": {"tested_on": "human cells", "settings": "cited from earlier work"}}}
{"smiles": "NC(=O)c1cc(N2CC2)c([N+](=O)[O-])cc1[N+](=O)[O-]", "note": "[Tretazicar, 5-(aziridin-1-yl)-2,4-dinitrobenzarnide]", "values": [{"measurement": "therapeutic benefit", "setting": "[1]", "value": "no therapeutic benefit"}, {"measurement": "LD50", "setting": "mouse", "value": 220, "unit": "mg/kg"}, {"measurement": "LD50", "setting": "rat", "value": 28, "unit": "mg/kg"}, {"measurement": "effect on Walker tumour", "setting": "Walker tumour", "value": "capable of eradicating"}, {"measurement": "oral bioavailability", "setting": "[2]", "value": "about 40%"}, {"measurement": "effect on other tumours", "setting": "variety of other tumours", "value": "little or no effect"}, {"measurement": "toxicity", "setting": "rats [3]", "value": "toxic to rats"}, {"measurement": "onset of toxic effects", "setting": "rats [4]", "value": "delayed"}, {"measurement": "sensitivity of cells to the effects of the compound", "setting": "human cells", "value": "insensitive"}]}
